Test results reported in US10383859B2, “Benzo[d]thiazole derivative or salt thereof, and pharmaceutical composition including same” (Yuhan Corporation, priority 2016, dated 2019).

Test system: A549 cells
Test: Cell migration assay (24-well transwell, laminin)
Assay type: cell-based, human
Details: Homo sapiens, A549, 6 h, laminin 10 μg/mL in lower well, test compounds 0.39˜100 μM, migrated cells counted, read-out: Inhibitory activity against cell migration
Procedure: Cell migration was measured with a 24-well transwell having a polycarbonate membrane (8.0 μm pore size, Costar) at the bottom of the upper chamber. Each lower well was treated with laminin (10 μg/mL) and test compounds in predetermined concentrations (0.39˜100 μM) along with a serum-free RPMI1640 medium. A549 cells (Korean Cell Line Bank) were suspended in a serum-free RPMI1640 medium at a concentration of 1×10^6 cells/mL and then the test compounds were added thereto at the indicated concentrations. Each resulting solution (100 μL) was added to the upper chamber. The cells were cultured at 37° C. for 6 hours in a CO2 incubator. The upper chamber was taken out and then the cells were fixed with PBS containing 70% methyl alcohol for 10 minutes, followed by washing with PBS twice. The cells were stained with hematoxylin (Sigma) for 10 minutes and then washed with distilled water. The non-migrated cells were removed from the upper portion of the polycarbonate membrane with a cotton swab. The membranes were excised and separated from the chamber, and then mounted to a slide using a gel mount reagent (Biomeda, USA). The migrated cells (attached to the lower face of the membrane) were counted at three randomly selected sites under a microscope (×20). The cell counting was performed with the Image J program. From the counted cell numbers, each IC50 value was calculated by non-linear regression curve fit using the “GraphPad Prism” program.
The cells are pulled by laminin residing in the lower chamber and then passed through the polycarbonate membrane, so as to attach to the lower face of the membrane.

## COc1ccc(CCN(Cc2ccc(C(=O)O)cc2)c2nc3cccc(F)c3s2)c(C)c1C [Example 47, 4-({(7-fluorobenzo[d]thiazol-2-yl)[2-(4-methoxy-2,3-dimethylphenyl)ethyl]amino}methyl)benzoic acid]
  IC50: > 10 µM

## CCC(c1ccc(C(=O)O)cc1)N(CCc1cc(C(C)C)c(OC)cc1C)c1nc2cccc(F)c2s1 (centres unmarked) [Example 76, 4-{1-[(7-fluorobenzo[d]thiazol-2-yl){2-[4-methoxy-2-methyl-5-(propan-2-yl)phenyl]ethyl}amino]propyl}benzoic acid]
  IC50: > 10 µM

## COc1ccc(CCN(Cc2ccc(C(=O)O)cc2)c2nc3ccc(Cl)cc3s2)cc1 [Example 84, 4-({(6-chloro-benzo[d]thiazol-2-yl)[2-(4-methoxyphenyl)ethyl]amino}methyl)benzoic acid]
  IC50: < 1 µM

## COc1ccc(CCN(c2nc3cc(C)ccc3s2)C(C)c2ccc(C(=O)O)cc2)cc1 (centres unmarked) [Example 112, 4-(1-{[2-(4-methoxyphenyl)ethyl](5-methyl-benzo[d]thiazol-2-yl)amino}ethyl)benzoic acid]
  IC50: > 10 µM

## O=C(O)c1ccc(CN(CCc2ccc(Cl)cc2)c2nc3cccc(F)c3s2)cc1 [Example 4, 4-{[[2-(4-chlorophenyl)ethyl](7-fluorobenzo[d]thiazol-2-yl)amino]methyl}benzoic acid]
  IC50: 1 to 10 µM

## COc1ccc(CCN(c2nc3ccc(C)cc3s2)C(C)c2ccc(C(=O)O)cc2)cc1 (centres unmarked) [Example 111, 4-(1-{[2-(4-methoxyphenyl)ethyl](6-methyl-benzo[d]thiazol-2-yl)amino}ethyl)benzoic acid]
  IC50: > 10 µM

## CN(C)c1ccc(CCN(Cc2ccc(C(=O)O)cc2)c2nc3cccc(F)c3s2)cc1 [Example 21, 4-{[{2-[4-(dimethylamino)phenyl]ethyl}(7-fluorobenzo[d]thiazol-2-yl)amino]methyl}benzoic acid]
  IC50: < 1 µM

## COc1ccc(CCN(Cc2ccc(C(=O)O)cc2)c2nc3cccc(C(=O)O)c3s2)cc1 [Example 118, 2-{(4-carboxybenzyl)[2-(4-methoxyphenyl)ethyl]amino}benzo[d]thiazole-7-carboxylic acid]
  IC50: > 10 µM

## COc1ccc(CCN(Cc2ccc(C(=O)O)cc2)c2nc3cccc(F)c3s2)cc1Br [Example 37, 4-({[2-(3-bromo-4-methoxyphenyl)ethyl](7-fluorobenzo[d]thiazol-2-yl)amino}methyl)benzoic acid]
  IC50: > 10 µM

## CC(c1ccc(C(=O)O)cc1)N(CCc1ccc(Cl)cc1Cl)c1nc2cccc(F)c2s1 (centres unmarked) [Example 59, 4-(1-{[2-(2,4-dichlorophenyl)ethyl](7-fluorobenzo[d]thiazol-2-yl)amino}ethyl)benzoic acid]
  IC50: > 10 µM

## COc1ccc(CCN(c2nc3cccc(F)c3s2)C(C)c2ccc(C(=O)O)cc2)c(C)c1C (centres unmarked) [Example 63, 4-(1-{(7-fluorobenzo[d]thiazol-2-yl)[2-(4-methoxy-2,3-dimethylphenyl)ethyl]amino}ethyl)benzoic acid]
  IC50: < 1 µM

## COc1ccc(CCN(Cc2ccc(C(=O)O)cc2)c2nc3cc(Cl)ccc3s2)cc1 [Example 85, 4-({(5-chloro-benzo[d]thiazol-2-yl)[2-(4-methoxyphenyl)ethyl]amino}methyl)benzoic acid]
  IC50: < 1 µM

## COc1ccc(CCN(Cc2ccc(C(=O)O)cc2)c2nc3cccc(F)c3s2)c(C)c1 [Example 50, 4-({(7-fluorobenzo[d]thiazol-2-yl)[2-(4-methoxy-2-methylphenyl)ethyl]amino}methyl)benzoic acid]
  IC50: < 1 µM

## O=C(O)c1ccc(CN(CCc2cc(F)ccc2F)c2nc3cccc(F)c3s2)cc1 [Example 35, 4-({[2-(2,5-difluorophenyl)ethyl](7-fluorobenzo[d]thiazol-2-yl)amino}methyl)benzoic acid]
  IC50: > 10 µM

## COc1ccc(OC)c(CCN(Cc2ccc(C(=O)O)cc2)c2nc3cccc(F)c3s2)c1 [Example 14, 4-({[2-(2,5-dimethoxyphenyl)ethyl](7-fluorobenzo[d]thiazol-2-yl)amino}methyl)benzoic acid]
  IC50: > 10 µM

## COc1ccc(CCN(c2nc3ccc(Cl)cc3s2)C(C)c2ccc(C(=O)O)cc2)cc1 (centres unmarked) [Example 108, 4-(1-{(6-chloro-benzo[d]thiazol-2-yl)[2-(4-methoxyphenyl)ethyl]amino}ethyl)benzoic acid]
  IC50: > 10 µM

## CCC(c1ccc(C(=O)O)cc1)N(CCc1ccc(OC)cc1Cl)c1nc2cccc(F)c2s1 (centres unmarked) [Example 70, 4-(1-{[2-(2-chloro-4-methoxyphenyl)ethyl](7-fluorobenzo[d]thiazol-2-yl)amino}propyl)benzoic acid]
  IC50: > 10 µM

## COc1ccc(CCN(Cc2ccc(C(=O)O)c(O)c2)c2nc3cccc(F)c3s2)cc1 [Example 77, 4-({(7-fluorobenzo[d]thiazol-2-yl)[2-(4-methoxyphenyl)ethyl]amino}methyl)-2-hydroxybenzoic acid]
  IC50: < 1 µM

## COc1cc(F)c(CCN(c2nc3cccc(F)c3s2)C(C)c2ccc(C(=O)O)cc2)cc1F (centres unmarked) [Example 61, 4-(1-{[2-(2,5-difluoro-4-methoxyphenyl)ethyl](7-fluorobenzo[d]thiazol-2-yl)amino}ethyl)benzoic acid]
  IC50: < 1 µM

## CSc1ccc(CCN(Cc2ccc(C(=O)O)cc2)c2nc3cccc(F)c3s2)cc1 [Example 12, 4-{[(7-fluorobenzo[d]thiazol-2-yl){2-[4-(methylsulfanyl)phenyl]ethyl}amino]methyl}benzoic acid]
  IC50: < 1 µM

## COc1ccc(CCN(c2nc3c(F)cc(F)cc3s2)C(C)c2ccc(C(=O)O)cc2)cc1 (centres unmarked) [Example 114, 4-(1-{(4,6-difluorobenzo[d]thiazol-2-yl)[2-(4-methoxyphenyl)ethyl]amino}ethyl)benzoic acid]
  IC50: > 10 µM

## COc1ccc(CCN(Cc2ccc(C(=O)O)cc2)c2nc3cccc(F)c3s2)cc1Cl [Example 29, 4-({[2-(3-chloro-4-methoxyphenyl)ethyl](7-fluorobenzo[d]thiazol-2-yl)amino}methyl)benzoic acid]
  IC50: < 1 µM

## COc1ccc(CCN(c2nc3ccc(Cl)c(F)c3s2)C(C)c2ccc(C(=O)O)cc2)cc1 (centres unmarked) [Example 102, 4-(1-{(6-chloro-7-fluorobenzo[d]thiazol-2-yl)[2-(4-methoxyphenyl)ethyl]amino}ethyl)benzoic acid]
  IC50: > 10 µM

## O=C(O)c1ccc(CN(CCc2ccccc2Cl)c2nc3cccc(F)c3s2)cc1 [Example 2, 4-(((2-chlorophenylethyl)(7-fluorobenzo[d]thiazol-2-yl)amino)methyl)benzoic acid]
  IC50: < 1 µM

## COc1ccc(CCN(c2nc3cc(F)cc(F)c3s2)C(C)c2ccc(C(=O)O)cc2)cc1 (centres unmarked) [Example 99, 4-(1-{(5,7-difluorobenzo[d]thiazol-2-yl)[2-(4-methoxyphenyl)ethyl]amino}ethyl)benzoic acid]
  IC50: > 10 µM

## CCCOc1ccc(CCN(Cc2ccc(C(=O)O)cc2)c2nc3cccc(F)c3s2)cc1 [Example 10, 4-({(7-fluorobenzo[d]thiazol-2-yl)[2-(4-propoxyphenyl)ethyl]amino}methyl)benzoic acid]
  IC50: 1 to 10 µM

## COc1ccc(CCN(Cc2ccc(C(=O)O)cc2)c2nc3cccc(C)c3s2)cc1 [Example 96, 4-({[2-(4-methoxyphenyl)ethyl](7-methyl-benzo[d]thiazol-2-yl)amino}methyl)benzoic acid]
  IC50: > 10 µM

## O=C(O)c1ccc(CN(CCc2ccc(OCC3CCC3)cc2)c2nc3cccc(F)c3s2)cc1 [Example 24, 4-{[[2-(4-cyclobutylmethoxyphenyl)ethyl]-(7-fluorobenzo[d]thiazol-2-yl)amino]methyl}benzoic acid]
  IC50: 1 to 10 µM

## CC(c1ccc(C(=O)O)cc1)N(CCc1cc(F)c(F)c(F)c1)c1nc2cccc(F)c2s1 (centres unmarked) [Example 58, 4-(1-{(7-fluorobenzo[d]thiazol-2-yl)[2-(3,4,5-trifluorophenyl)ethyl]amino}ethyl)benzoic acid]
  IC50: > 10 µM

## CCc1ccc(CCN(Cc2ccc(C(=O)O)cc2)c2nc3cccc(F)c3s2)cc1 [Example 32, 4-({[2-(4-ethylphenyl)ethyl](7-fluorobenzo[d]thiazol-2-yl)amino}methyl)benzoic acid]
  IC50: < 1 µM

## O=C(O)c1ccc(CN(CCc2ccccc2)c2nc3cccc(F)c3s2)cc1 [Example 22, 4-{[(7-fluorobenzo[d]thiazol-2-yl)(2-phenylethyl)amino]methyl}benzoic acid]
  IC50: 1 to 10 µM

## Cc1cccc(CCN(Cc2ccc(C(=O)O)cc2)c2nc3cccc(F)c3s2)c1 [Example 17, 4-({(7-fluorobenzo[d]thiazol-2-yl)[2-(3-methylphenyl)ethyl]amino}methyl)benzoic acid]
  IC50: > 10 µM

## COc1ccc(CCN(Cc2ccc(C(=O)O)cc2)c2nc3ccc(C(F)(F)F)cc3s2)cc1 [Example 119, 4-({[2-(4-methoxyphenyl)ethyl][6-(trifluoromethyl)benzo[d]thiazol-2-yl]amino}methyl)benzoic acid]
  IC50: > 10 µM

## COc1ccc(CCN(Cc2ccc(C(=O)O)cc2)c2nc3cc(Br)ccc3s2)cc1 [Example 91, 4-({(5-bromo-benzo[d]thiazol-2-yl)[2-(4-methoxyphenyl)ethyl]amino}methyl)benzoic acid]
  IC50: < 1 µM

## COc1ccc(CCN(c2nc3cc(F)ccc3s2)C(C)c2ccc(C(=O)O)cc2)cc1 (centres unmarked) [Example 113, 4-(1-{(5-fluorobenzo[d]thiazol-2-yl)[2-(4-methoxyphenyl)ethyl]amino}ethyl)benzoic acid]
  IC50: > 10 µM
